The supplement of paper PMC4976141
± gives the uncertainty stated by the source.

Columns and labels:
[1] = test system: COLO-205; experiment: % viability in DMSO, miRNA mimic relative to NTC in DMSO; higher = less cytotoxic; settings: drug used in drug arm: AZ628 1 uM; treatment: DMSO
Description: (§1)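 26 miRNA mimics were transfected into 8 cancer cell lines in triplicate. 48 h post-transfection, cells were treated 72 h with DMSO or a line-specific drug, then recovered 72 h drug-free. Drugs: COLO-205 AZ628 1 uM, MKN-45 crizotinib 1 uM, NCI-H596 paclitaxel 6 uM, EVSA-T GDC-0980 2.5 uM, M14 AZ628 1 uM, HCC-1954 GDC-0980 2.5 uM, NCI-H441 carboplatin 2.5 uM, SKBr3 lapatinib 1 uM. Surviving cells are expressed as % of NTC-transfected cells in DMSO (the NTC drug arm itself is about 30-50%), mean +- SEM.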

[2] = test system: EVSA-T; experiment: as above; settings: drug used in drug arm: GDC-0980 2.5 uM; treatment: DMSO
Description: as §1

[3] = test system: HCC-1954; experiment: as above; settings: drug used in drug arm: GDC-0980 2.5 uM; treatment: DMSO
Description: as §1

[4] = test system: M14; experiment: as above; settings: drug used in drug arm: AZ628 1 uM; treatment: DMSO
Description: as §1

[5] = test system: MKN-45; experiment: as above; settings: drug used in drug arm: crizotinib 1 uM; treatment: DMSO
Description: as §1

[6] = test system: NCI-H441; experiment: as above; settings: drug used in drug arm: carboplatin 2.5 uM; treatment: DMSO
Description: as §1

[7] = test system: NCI-H596; experiment: as above; settings: drug used in drug arm: paclitaxel 6 uM; treatment: DMSO
Description: as §1

[8] = test system: SK-BR-3; experiment: as above; settings: drug used in drug arm: lapatinib 1 uM; treatment: DMSO
Description: as §1

[9] = test system: COLO-205; experiment: % viability under drug (72 h drug + 72 h recovery), miRNA mimic relative to NTC in DMSO; higher = more surviving cells; settings: drug used in drug arm: AZ628 1 uM; treatment: drug
Description: as §1

[10] = test system: EVSA-T; experiment: as above; settings: drug used in drug arm: GDC-0980 2.5 uM; treatment: drug
Description: as §1

[11] = test system: HCC-1954; experiment: as above; settings: drug used in drug arm: GDC-0980 2.5 uM; treatment: drug
Description: as §1

[12] = test system: M14; experiment: as above; settings: drug used in drug arm: AZ628 1 uM; treatment: drug
Description: as §1

[13] = test system: MKN-45; experiment: as above; settings: drug used in drug arm: crizotinib 1 uM; treatment: drug
Description: as §1

[14] = test system: NCI-H441; experiment: as above; settings: drug used in drug arm: carboplatin 2.5 uM; treatment: drug
Description: as §1

[15] = test system: NCI-H596; experiment: as above; settings: drug used in drug arm: paclitaxel 6 uM; treatment: drug
Description: as §1

[16] = test system: SK-BR-3; experiment: as above; settings: drug used in drug arm: lapatinib 1 uM; treatment: drug
Description: as §1

[17] = test system: PC9; experiment: cell count fold change with erlotinib, miRNA mimic vs non-targeting control (log2 ratio); higher = more drug-tolerant survivors than NTC; settings: erlotinib 1 µM; 72 h drug + 72 h drug-free recovery; perturbation: miRNA mimic

| Sequence | % viability in DMSO [1] | % viability in DMSO [2] | % viability in DMSO [3] | % viability in DMSO [4] | % viability in DMSO [5] | % viability in DMSO [6] | % viability in DMSO [7] | % viability in DMSO [8] | % viability under drug [9] | % viability under drug [10] | % viability under drug [11] | % viability under drug [12] | % viability under drug [13] | % viability under drug [14] | % viability under drug [15] | % viability under drug [16] | cell count fold change with erlotinib [17] |
| --- | --- | --- | --- | --- | --- | --- | --- | --- | --- | --- | --- | --- | --- | --- | --- | --- | --- |
| GAAUGUUGCUCGGUGAACCCCU | 102 ± 1.1% | 0.953 ± 0.055% | 10.8 ± 1.4% | 17.3 ± 2.9% | 8.61 ± 2.6% | 7.26 ± 0.039% | 7.07 ± 2.1% | 12.4 ± 5.7% | 36.6 ± 1.2% | 0.08 ± 0.004% | 0.831 ± 0.092% | 3.18 ± 0.17% | 0.355 ± 0.046% | 4.29 ± 0.14% | 0.932 ± 0.015% | 10.1 ± 0.42% | -3.27 |
| AACGCCAUUAUCACACUAAAUA | 106 ± 2% | 23.6 ± 3.1% | 81.2 ± 2.9% | 73.5 ± 3.2% | 27.1 ± 3.8% | 13.2 ± 1.1% | 62.43 ± 0.46% | 22.3 ± 5.5% | 43 ± 1.6% | 0.459 ± 0.079% | 2.25 ± 0.44% | 12.8 ± 0.75% | 1.35 ± 0.4% | 10.2 ± 2.8% | 0.97 ± 0.026% | 11.5 ± 1.4% | 0.733 |
| AAGUGCCGCCAUCUUUUGAGUGU | 100.8 ± 0.28% | 12.3 ± 1.3% | 11.8 ± 0.37% | 15.7 ± 1.4% | 35.27 ± 0.22% | 13.71 ± 0.039% | 37.5 ± 5.6% | 22.2 ± 6.5% | 30.8 ± 0.9% | 0.157% | 0.919 ± 0.19% | 1.98 ± 0.13% | 0.444 ± 0.042% | 7.71 ± 2.4% | 0.265 ± 0.011% | 8.32 ± 0.77% | -4.45 |
| UCUACAAAGGAAAGCGCUUUCU | 109 ± 3.9% | 37.4 ± 6.7% | 68.8 ± 1.8% | 63 ± 19% | 48.8 ± 8.7% | 41.8 ± 3.1% | 80.5 ± 9.8% | 49.1 ± 3.5% | 47.79 ± 0.091% | 1.13 ± 0.19% | 2.02 ± 0.14% | 6.38 ± 0.2% | 1.63 ± 0.29% | 12.8 ± 1.1% | 2.12 ± 0.19% | 26 ± 2.1% | 0.22 |
